US20140357655A1, “SPIROINDOLINE DERIVATIVES AS GONADOTROPIN- RELEASING HORMONE RECEPTOR ANTAGONISTS” (Bayer Intellectual Property GmbH, priority 2012, published 2014)

Each compound was assayed against T1, human GnRH receptor (Homo sapiens, UniProt P30968) (assay: IP-One HTRF assay with buserelin (at EC80) stimulation). Details: CHO cells stably expressing human GnRH receptor, read-out: Potency in IP-One HTRF assay, given as IC50.
T1 sequence (P30968 1-328): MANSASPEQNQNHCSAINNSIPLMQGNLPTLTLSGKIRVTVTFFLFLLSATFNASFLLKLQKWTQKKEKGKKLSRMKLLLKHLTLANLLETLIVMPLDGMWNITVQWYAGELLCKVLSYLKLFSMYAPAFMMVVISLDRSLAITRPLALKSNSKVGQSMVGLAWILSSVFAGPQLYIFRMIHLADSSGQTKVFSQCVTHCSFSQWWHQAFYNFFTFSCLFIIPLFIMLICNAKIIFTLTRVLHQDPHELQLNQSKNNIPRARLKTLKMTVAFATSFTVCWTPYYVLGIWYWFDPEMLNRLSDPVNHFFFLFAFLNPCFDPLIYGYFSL
Type: cell-based
How it was run: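 CHO cells stably expressing human GnRH receptor, preincubated 1 h at 37° C with IP1-d2, were exposed to compound and buserelin at EC80 for 1 h at 37° C. After lysis with Tb-anti-IP1 antibody (1 h, 22° C), 665/620 nm HTRF ratio read; 10 concentrations, 20 μM–1 nM, duplicates, 4-parameter IC50.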

SMILES | IC50
CC1N(S(=O)(=O)c2ccc(F)cc2)c2ccc(C(=O)NCc3ncccc3Cl)cc2C12CCS(=O)(=O)CC2 (stereo not drawn) [Example 26, N-[(3-chloropyridin-2-yl)methyl]-1-[(4-fluorophenyl)sulfonyl]-2-methyl-1,2,2′,3′,5′,6′-hexahydrospiro[indole-3,4′-thiopyran]-5-carboxamide 1′,1′-dioxide] | 646 nM
CC1N(S(=O)(=O)c2ccc(F)cc2)c2ccc(C(=O)NC(C)(C)c3ccc(F)cc3Cl)cc2C12CCS(=O)(=O)CC2 (stereo not drawn) [Example 27, N-(2-chloro-4-fluoro-α,α-dimethylbenzyl)-1-[(4-fluorophenyl)sulfonyl]-2-methyl-1,2,2′,3′,5′,6′-hexahydrospiro[indole-3,4′-thiopyran]-5-carboxamide 1′,1′-dioxide] | 9020 nM
CC1N(S(=O)(=O)c2ccc(F)cc2)c2ccc(C(=O)NCc3ncc(F)cc3Cl)cc2C12CCS(=O)(=O)CC2 (stereo not drawn) [Example 28, N-[(3-chloro-5-fluoropyridin-2-yl)methyl]-1-[(4-fluorophenyl)sulfonyl]-2-methyl-1,2,2′,3′,5′,6′-hexahydrospiro[indole-3,4′-thiopyran]-5-carboxamide 1′,1′-dioxide] | 405 nM
Cc1ccc(NC(=O)c2ccc3c(c2)C2(CCS(=O)(=O)CC2)C(C2CC2)N3S(=O)(=O)c2ccc(F)cc2)nc1 (stereo not drawn) [Example 29, 2-cyclopropyl-1-[(4-fluorophenyl)sulfonyl]-N-(5-methylpyridin-2-yl)-1,2,2′,3′,5′,6′-hexahydrospiro[indole-3,4′-thiopyran]-5-carboxamide 1′,1′-dioxide] | > 20000 nM
NS(=O)(=O)c1cccc(NC(=O)c2ccc3c(c2)C2(CCS(=O)(=O)CC2)C(C2CC2)N3S(=O)(=O)c2ccc(F)cc2)c1 (stereo not drawn) [Example 30, 2-cyclopropyl-1-[(4-fluorophenyl)sulfonyl]-N-(3-sulfamoylphenyl)-1,2,2′,3′,5′,6′-hexahydrospiro[indole-3,4′-thiopyran]-5-carboxamide 1′,1′-dioxide] | 245 nM
Cc1cccnc1CNC(=O)c1ccc2c(c1)C1(CCS(=O)(=O)CC1)C(C1CC1)N2S(=O)(=O)c1ccc(F)cc1 (stereo not drawn) [Example 31, 2-cyclopropyl-1-[(4-fluorophenyl)sulfonyl]-N-[(3-methylpyridin-2-yl)methyl]-1,2,2′,3′,5′,6′-hexahydrospiro[indole-3,4′-thiopyran]-5-carboxamide 1′,1′-dioxide] | 503 nM
O=C(NCc1ccccc1C(F)(F)F)c1ccc2c(c1)C1(CCS(=O)(=O)CC1)C(C1CC1)N2S(=O)(=O)c1ccc(F)cc1 (stereo not drawn) [Example 32, 2-cyclopropyl-1-[(4-fluorophenyl)sulfonyl]-N-[2-(trifluoromethyl)benzyl]-1,2,2′,3′,5′,6′-hexahydrospiro[indole-3,4′-thiopyran]-5-carboxamide 1′,1′-dioxide] | 58 nM
O=C(NC1CCOc2ccccc21)c1ccc2c(c1)C1(CCS(=O)(=O)CC1)C(C1CC1)N2S(=O)(=O)c1ccc(F)cc1 (stereo not drawn) [Example 33, 2-cyclopropyl-N-(3,4-dihydro-2H-chromen-4-yl)-1-[(4-fluorophenyl)sulfonyl]-1,2,2′,3′,5′,6′-hexahydrospiro[indole-3,4′-thiopyran]-5-carboxamide 1′,1′-dioxide] | 958 nM
COC(=O)c1cccc(NC(=O)c2ccc3c(c2)C2(CCS(=O)(=O)CC2)C(C2CC2)N3S(=O)(=O)c2ccc(F)cc2)c1 (stereo not drawn) [Example 34, methyl 3-[({2-cyclopropyl-1-[(4-fluorophenyl)sulfonyl]-1′,1′-dioxido-1,2,2′,3′,5′,6′-hexahydrospiro[indole-3,4′-thiopyran]-5-yl}carbonyl)amino]benzoate] | 66 nM
O=C(NCC1CC1)c1ccc2c(c1)C1(CCS(=O)(=O)CC1)C(C1CC1)N2S(=O)(=O)c1ccc(F)cc1 (stereo not drawn) [Example 35, 2-cyclopropyl-N-(cyclopropylmethyl)-1-[(4-fluorophenyl)sulfonyl]-1,2,2′,3′,5′,6′-hexahydrospiro[indole-3,4′-thiopyran]-5-carboxamide 1′,1′-dioxide] | 627 nM
O=C(NCC1CCCCC1)c1ccc2c(c1)C1(CCS(=O)(=O)CC1)C(C1CC1)N2S(=O)(=O)c1ccc(F)cc1 (stereo not drawn) [Example 36, N-(cyclohexylmethyl)-2-cyclopropyl-1-[(4-fluorophenyl)sulfonyl]-1,2,2′,3′,5′,6′-hexahydrospiro[indole-3,4′-thiopyran]-5-carboxamide 1′,1′-dioxide] | 169 nM
CN(C)S(=O)(=O)c1cccc(NC(=O)c2ccc3c(c2)C2(CCS(=O)(=O)CC2)C(C2CC2)N3S(=O)(=O)c2ccc(F)cc2)c1 (stereo not drawn) [Example 37, 2-cyclopropyl-N-[3-(N,N-dimethylsulfamoyl)phenyl]-1-[(4-fluorophenyl)sulfonyl]-1,2,2′,3′,5′,6′-hexahydrospiro[indole-3,4′-thiopyran]-5-carboxamide 1′,1′-dioxide] | 78 nM
O=C(NCC1CCCC1)c1ccc2c(c1)C1(CCS(=O)(=O)CC1)C(C1CC1)N2S(=O)(=O)c1ccc(F)cc1 (stereo not drawn) [Example 38, N-(cyclopentylmethyl)-2-cyclopropyl-1-[(4-fluorophenyl)sulfonyl]-1,2,2′,3′,5′,6′-hexahydrospiro[indole-3,4′-thiopyran]-5-carboxamide 1′,1′-dioxide] | 136 nM
COc1cccc(S(=O)(=O)N2c3ccc(C(=O)NCc4ncccc4C(F)(F)F)cc3C3(CCS(=O)(=O)CC3)C2C2CC2)c1 (stereo not drawn) [Example 39, 2-cyclopropyl-1-[(3-methoxyphenyl)sulfonyl]-N-{[3-(trifluoromethyl)pyridin-2-yl]methyl}-1,2,2′,3′,5′,6′-hexahydrospiro[indole-3,4′-thiopyran]-5-carboxamide 1′,1′-dioxide] | 53 nM
COc1cccc(S(=O)(=O)N2c3ccc(C(=O)NCc4ccccc4C(F)(F)F)cc3C3(CCS(=O)(=O)CC3)C2C2CC2)c1 (stereo not drawn) [Example 40, 2-cyclopropyl-1-[(3-methoxyphenyl)sulfonyl]-N-[2-(trifluoromethyl)benzyl]-1,2,2′,3′,5′,6′-hexahydrospiro[indole-3,4′-thiopyran]-5-carboxamide 1′,1′-dioxide] | 32 nM
COc1cccc(S(=O)(=O)N2c3ccc(C(=O)NCc4ncccc4Cl)cc3C3(CCS(=O)(=O)CC3)C2C2CC2)c1 (stereo not drawn) [Example 41, N-[(3-chloropyridin-2-yl)methyl]-2-cyclopropyl-1-[(3-methoxyphenyl)sulfonyl]-1,2,2′,3′,5′,6′-hexahydrospiro[indole-3,4′-thiopyran]-5-carboxamide 1′,1′-dioxide] | 234 nM
COc1cccc(S(=O)(=O)N2c3ccc(C(=O)Nc4cccc(S(N)(=O)=O)c4)cc3C3(CCS(=O)(=O)CC3)C2C2CC2)c1 (stereo not drawn) [Example 42, 2-cyclopropyl-1-[(3-methoxyphenyl)sulfonyl]-N-(3-sulfamoylphenyl)-1,2,2′,3′,5′,6′-hexahydrospiro[indole-3,4′-thiopyran]-5-carboxamide 1′,1′-dioxide] | 96 nM
COc1cccc(S(=O)(=O)N2c3ccc(C(=O)Nc4cccc(S(=O)(=O)N(C)C)c4)cc3C3(CCS(=O)(=O)CC3)C2C2CC2)c1 (stereo not drawn) [Example 43, 2-cyclopropyl-N-[3-(N,N-dimethylsulfamoyl)phenyl]-1-[(3-methoxyphenyl)sulfonyl]-1,2,2′,3′,5′,6′-hexahydrospiro[indole-3,4′-thiopyran]-5-carboxamide 1′,1′-dioxide] | 56 nM
COc1cccc(S(=O)(=O)N2c3ccc(C(=O)NCc4ccccc4Cl)cc3C3(CCS(=O)(=O)CC3)C2C2CC2)c1 (stereo not drawn) [Example 44, N-(2-chlorobenzyl)-2-cyclopropyl-1-[(3-methoxyphenyl)sulfonyl]-1,2,2′,3′,5′,6′-hexahydrospiro[indole-3,4′-thiopyran]-5-carboxamide 1′,1′-dioxide] | 31 nM
COc1cccc(S(=O)(=O)N2c3ccc(C(=O)NCc4ncccc4C)cc3C3(CCS(=O)(=O)CC3)C2C2CC2)c1 (stereo not drawn) [Example 45, 2-cyclopropyl-1-[(3-methoxyphenyl)sulfonyl]-N-[(3-methylpyridin-2-yl)methyl]-1,2,2′,3′,5′,6′-hexahydrospiro[indole-3,4′-thiopyran]-5-carboxamide 1′,1′-dioxide] | 299 nM
COc1cccc(S(=O)(=O)N2c3ccc(C(=O)NCc4ccc(F)cc4Cl)cc3C3(CCS(=O)(=O)CC3)C2C2CC2)c1 (stereo not drawn) [Example 46, N-(2-chloro-4-fluorobenzyl)-2-cyclopropyl-1-[(3-methoxyphenyl)sulfonyl]-1,2,2′,3′,5′,6′-hexahydrospiro[indole-3,4′-thiopyran]-5-carboxamide 1′,1′-dioxide] | 81 nM
COc1cccc(S(=O)(=O)N2c3ccc(C(=O)NCc4ccccc4F)cc3C3(CCS(=O)(=O)CC3)C2C2CC2)c1 (stereo not drawn) [Example 47, 2-cyclopropyl-N-(2-fluorobenzyl)-1-[(3-methoxyphenyl)sulfonyl]-1,2,2′,3′,5′,6′-hexahydrospiro[indole-3,4′-thiopyran]-5-carboxamide 1′,1′-dioxide] | 133 nM
COC(=O)c1cccc(NC(=O)c2ccc3c(c2)C2(CCS(=O)(=O)CC2)C(C2CC2)N3S(=O)(=O)c2cccc(OC)c2)c1 (stereo not drawn) [Example 48, methyl 3-[({2-cyclopropyl-1-[(3-methoxyphenyl)sulfonyl]-1′,1′-dioxido-1,2,2′,3′,5′,6′-hexahydrospiro[indole-3,4′-thiopyran]-5-yl}carbonyl)amino]benzoate] | 55 nM
COc1cccc(S(=O)(=O)N2c3ccc(C(=O)Nc4cccc(C(=O)O)c4)cc3C3(CCS(=O)(=O)CC3)C2C2CC2)c1 (stereo not drawn) [Example 50, 3-[({2-cyclopropyl-1-[(3-methoxyphenyl)sulfonyl]-1′,1′-dioxido-1,2,2′,3′,5′,6′-hexahydrospiro[indole-3,4′-thiopyran]-5-yl}carbonyl)amino]benzoic acid] | 54 nM
